Results reported in PMC11279916, “Application of ^99mTc-Labeled WL12 Peptides as a Tumor PD-L1-Targeted SPECT Imaging Agent: Kit Formulation, Preclinical Evaluation, and Study on the Influence of Coligands” (Pharmaceuticals, 2024).

Biological target: PD-L1 protein (Homo sapiens, UniProt Q9NZQ7)
Test: TR-FRET in vitro affinity assay (IC50)
Assay type: binding
Conditions: PD-L1-biotin / PD-1-Eu
Method: Fig. S3. HPLC analysis of HYNIC-WL12 (tR = 14.29 min, purity 95.84%).
In Vitro Affinity Assay: Determination of IC50
The affinity of WL12 and HYNIC-WL12 for the PD-L1 protein was determined via a time-resolved fluorescence energy transfer (TR-FRET) assay. In brief, 200 nL of WL12 or HYNIC-WL12 solutions at different concentrations (from 0.5-10000 nM) in 10% ethanol were transferred to 384-well plates on an Echo550 […]
instrument. Then, 5 µL of PD-L1-biotin solution was added, and the plates were centrifuged at 1000 rpm for 30 s and incubated at room temperature. After incubation for 15 min, the mixed solution containing PD-1-Eu and dye-labeled acceptor was added. Then, the plates were centrifuged at 1000 rpm for 30 s and incubated for 90 min at room temperature. Finally, the 665 nm-to-615 nm ratios were read on a microplate reader, and the IC50 values of the two peptides were calculated. […]
For RP-HPLC analysis of [99mTc]Tc-HYNIC-WL12-tricine/M, phase A was water containing 0.1% trifluoroacetic acid (TFA), and phase B was acetonitrile containing 0.1% trifluoroacetic acid (TFA). […] Additionally, the radiochemical purity of [99mTc]Tc-HYNIC-WL12-tricine/M was determined by instant thin layer chromatography on silica gel (iTLC-SG, Agilent, China) using acid-citrate-dextrose solution (ACD solution, pH = 4.5-5.5) as the mobile phase solvent. […]
Effect of HYNIC-WL12 Quantities on the Radiochemical Yield […]

Chain of PD-L1 protein (Q9NZQ7 19-238 limits assumed): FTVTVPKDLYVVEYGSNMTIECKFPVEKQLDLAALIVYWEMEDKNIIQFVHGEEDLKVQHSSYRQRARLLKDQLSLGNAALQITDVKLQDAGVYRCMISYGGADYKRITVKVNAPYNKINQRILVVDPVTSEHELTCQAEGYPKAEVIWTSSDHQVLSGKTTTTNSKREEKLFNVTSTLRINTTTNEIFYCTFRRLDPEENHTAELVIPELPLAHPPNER

IC50: 170 nM
Structure (SMILES): CCCC[C@H]1C(=O)N(C)[C@@H](CCCC)C(=O)N[C@@H](CCCNC(=O)c2ccc(NN)nc2)C(=O)N[C@H](C(=O)NCC(N)=O)CSCC(=O)N[C@@H](Cc2ccc(O)cc2)C(=O)N(C)[C@@H](C)C(=O)N[C@@H](CC(N)=O)C(=O)N2CCC[C@H]2C(=O)N[C@@H](Cc2c[nH]cn2)C(=O)N[C@@H](CC(C)C)C(=O)N2C[C@H](O)C[C@H]2C(=O)N[C@@H](Cc2c[nH]c3ccccc23)C(=O)N[C@@H](CO)C(=O)N[C@@H](Cc2cn(C)c3ccccc23)C(=O)N1C [HYNIC-WL12]
